In PubChem BioAssay AID256 (DTP/NCI, 2004):
Toxic doses and inconclusive results are not listed. The calls were made as follows: active = survival T/C of 150% or more; inactive = T/C below 125% in these data.

Tested on: CD2F1 mice, L1210 leukemia ip, survival T/C
Experiment: NCI In Vivo Anticancer Drug Screen. Data for tumor model L1210 Leukemia (intraperitoneal) in CD2F1 (CDF1) mice
Settings: higher = longer survival
Summary of the method: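 Compound-dosed mice with transplantable tumor versus matched vehicle controls; endpoint ratio T/C reported.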

[1] = endpoint: mean survival time, dose: 100.0 mg/kg/injection, schedule: Q04DX002 (ip), vehicle: saline with Tween-80
[2] = endpoint: mean survival time, dose: 100.0 mg/kg/injection, schedule: Q01DX009 (ip), vehicle: saline with Tween-80
[3] = endpoint: mean survival time, dose: 100.0 mg/kg/injection, schedule: Q04DX003 (ip), vehicle: saline with Tween-80
[4] = endpoint: mean survival time, dose: 200.0 mg/kg/injection, schedule: Q01DX009 (ip), vehicle: saline with Tween-80
[5] = endpoint: mean survival time, dose: 200.0 mg/kg/injection, schedule: Q04DX003 (ip), vehicle: saline with Tween-80
[6] = endpoint: mean survival time, dose: 400.0 mg/kg/injection, schedule: Q04DX003 (ip), vehicle: saline with Tween-80
[7] = endpoint: mean survival time, dose: 100.0 mg/kg/injection, schedule: Q01DX001 (ip), vehicle: saline
[8] = endpoint: mean survival time, dose: 200.0 mg/kg/injection, schedule: Q01DX001 (ip), vehicle: saline
[9] = endpoint: mean survival time, dose: 400.0 mg/kg/injection, schedule: Q01DX009 (ip), vehicle: saline with Tween-80

Measured: T/C

CC(C)(C)OC(=O)NC(C(=O)O)C1=CCC=CC1 (stereo unspecified)
inactive: endpoint: mean survival time, dose: 25.0 mg/kg/injection, schedule: Q01DX009 (ip), vehicle: other 100 % of control | endpoint: mean survival time, dose: 50.0 mg/kg/injection, schedule: Q01DX009 (ip), vehicle: other 96 % of control | endpoint: mean survival time, dose: 50.0 mg/kg/injection, schedule: Q04DX002 (ip), vehicle: other 101 % of control | endpoint: mean survival time, dose: 50.0 mg/kg/injection, schedule: Q04DX003 (ip), vehicle: other 103 % of control | endpoint: mean survival time, dose: 100.0 mg/kg/injection, schedule: Q01DX001 (ip), vehicle: other 106 % of control | endpoint: mean survival time, dose: 100.0 mg/kg/injection, schedule: Q01DX009 (ip), vehicle: other 91 % of control | endpoint: mean survival time, dose: 100.0 mg/kg/injection, schedule: Q04DX002 (ip), vehicle: other 101 % of control | endpoint: mean survival time, dose: 100.0 mg/kg/injection, schedule: Q04DX003 (ip), vehicle: other 106 % of control | endpoint: mean survival time, dose: 200.0 mg/kg/injection, schedule: Q01DX001 (ip), vehicle: other 99 % of control | endpoint: mean survival time, dose: 200.0 mg/kg/injection, schedule: Q01DX009 (ip), vehicle: other 91 % of control | endpoint: mean survival time, dose: 200.0 mg/kg/injection, schedule: Q04DX002 (ip), vehicle: other 94 % of control | endpoint: mean survival time, dose: 200.0 mg/kg/injection, schedule: Q04DX003 (ip), vehicle: other 97 % of control | endpoint: mean survival time, dose: 400.0 mg/kg/injection, schedule: Q01DX001 (ip), vehicle: other 99 % of control | endpoint: mean survival time, dose: 400.0 mg/kg/injection, schedule: Q04DX002 (ip), vehicle: other 101 % of control | endpoint: mean survival time, dose: 400.0 mg/kg/injection, schedule: Q04DX003 (ip), vehicle: other 97 % of control | endpoint: mean survival time, dose: 600.0 mg/kg/injection, schedule: Q01DX001 (ip), vehicle: other 96 % of control

O=C1C2=C(C(=O)C3=C1C1CCC3C1)C1CCC2C1
inactive: endpoint: mean survival time, dose: 25.0 mg/kg/injection, schedule: Q04DX002 (ip), vehicle: saline with Tween-80 105 % of control | endpoint: mean survival time, dose: 50.0 mg/kg/injection, schedule: Q04DX002 (ip), vehicle: saline with Tween-80 101 % of control | [1] 108 % of control

O=[N+]([O-])c1ccccc1N=C(c1ccccc1)N(O)c1ccccc1
inactive: endpoint: mean survival time, dose: 9.4 mg/kg/injection, schedule: Q01DX009 (ip), vehicle: saline with Tween-80 101 % of control | endpoint: mean survival time, dose: 9.4 mg/kg/injection, schedule: Q04DX003 (ip), vehicle: saline with Tween-80 98 % of control | endpoint: mean survival time, dose: 18.8 mg/kg/injection, schedule: Q01DX001 (ip), vehicle: saline 101 % of control | endpoint: mean survival time, dose: 18.8 mg/kg/injection, schedule: Q01DX009 (ip), vehicle: saline with Tween-80 104 % of control | endpoint: mean survival time, dose: 18.8 mg/kg/injection, schedule: Q04DX003 (ip), vehicle: saline with Tween-80 100 % of control | endpoint: mean survival time, dose: 37.5 mg/kg/injection, schedule: Q01DX001 (ip), vehicle: saline 102 % of control

CC(=O)OC1CCCCC1C (stereo unspecified)
inactive: [2] 105 % of control | [3] 105 % of control | [4] 100 % of control | [5] 110 % of control | [6] 102 % of control

O=C(O)/C=C\c1ccc(OC(=O)c2ccccc2)cc1
inactive: endpoint: mean survival time, dose: 50.0 mg/kg/injection, schedule: Q01DX009 (ip), vehicle: Klucel (hydroxypropylcellulose) (HPC) 96 % of control | endpoint: mean survival time, dose: 100.0 mg/kg/injection, schedule: Q01DX009 (ip), vehicle: Klucel (hydroxypropylcellulose) (HPC) 93 % of control | endpoint: mean survival time, dose: 200.0 mg/kg/injection, schedule: Q01DX009 (ip), vehicle: Klucel (hydroxypropylcellulose) (HPC) 93 % of control

Cn1c(=O)ccc2ccccc21
inactive: [1] 101 % of control | endpoint: mean survival time, dose: 200.0 mg/kg/injection, schedule: Q04DX002 (ip), vehicle: saline with Tween-80 87 % of control

CCCCCCCCCCC(CCCCCCCCCC)C1CC(C)CCC1C (stereo unspecified)
inactive: [7] 94 % of control | [8] 97 % of control | endpoint: mean survival time, dose: 400.0 mg/kg/injection, schedule: Q01DX001 (ip), vehicle: saline 97 % of control

O=S(=O)(O)O.[Pt].c1ccc([PH+](c2ccccc2)c2ccccc2)cc1.c1ccc([PH+](c2ccccc2)c2ccccc2)cc1.c1ccc([PH+](c2ccccc2)c2ccccc2)cc1
inactive: endpoint: mean survival time, dose: 3.12 mg/kg/injection, schedule: Q04DX003 (ip), vehicle: distilled water + Tween-80 102 % of control | endpoint: mean survival time, dose: 6.25 mg/kg/injection, schedule: Q04DX003 (ip), vehicle: distilled water + Tween-80 102 % of control | endpoint: mean survival time, dose: 12.5 mg/kg/injection, schedule: Q04DX003 (ip), vehicle: distilled water + Tween-80 105 % of control | endpoint: mean survival time, dose: 25.0 mg/kg/injection, schedule: Q04DX003 (ip), vehicle: distilled water + Tween-80 102 % of control

Cc1cc(I)cs1
inactive: [7] 108 % of control | [8] 102 % of control

Cn1c(C(N)=O)cc(=O)n1-c1ccccc1
inactive: endpoint: mean survival time, dose: 100.0 mg/kg/injection, schedule: Q01DX001 (ip), vehicle: saline sonified 102 % of control | [2] 107 % of control | endpoint: mean survival time, dose: 200.0 mg/kg/injection, schedule: Q01DX001 (ip), vehicle: saline sonified 96 % of control | [4] 103 % of control | endpoint: mean survival time, dose: 400.0 mg/kg/injection, schedule: Q01DX001 (ip), vehicle: saline sonified 98 % of control | [9] 105 % of control

CCO/C=C1\SC(=S)N(C)C1=O
inactive: endpoint: mean survival time, dose: 15.0 mg/kg/injection, schedule: Q01DX009 (ip), vehicle: saline with Tween-80 90 % of control | endpoint: mean survival time, dose: 30.0 mg/kg/injection, schedule: Q01DX009 (ip), vehicle: saline with Tween-80 87 % of control | endpoint: mean survival time, dose: 60.0 mg/kg/injection, schedule: Q01DX009 (ip), vehicle: saline with Tween-80 98 % of control

NC/C(=N\O)c1ccc(-c2ccccc2)cc1
inactive: endpoint: mean survival time, dose: 100.0 mg/kg/injection, schedule: Q01DX001 (ip), vehicle: Klucel (hydroxypropylcellulose) (HPC) 91 % of control | endpoint: mean survival time, dose: 200.0 mg/kg/injection, schedule: Q01DX001 (ip), vehicle: Klucel (hydroxypropylcellulose) (HPC) 91 % of control | endpoint: mean survival time, dose: 400.0 mg/kg/injection, schedule: Q01DX001 (ip), vehicle: Klucel (hydroxypropylcellulose) (HPC) 91 % of control

NCCSC1(O)C(=O)c2ccccc2C1=O
inactive: endpoint: mean survival time, dose: 37.5 mg/kg/injection, schedule: Q01DX009 (ip), vehicle: saline 109 % of control | endpoint: mean survival time, dose: 75.0 mg/kg/injection, schedule: Q01DX009 (ip), vehicle: saline 109 % of control | endpoint: mean survival time, dose: 150.0 mg/kg/injection, schedule: Q01DX009 (ip), vehicle: saline 89 % of control

[Cl][Pt][Cl].c1ccc2[nH]c(C3CCCC[N-]3)nc2c1 (stereo unspecified)
inactive: endpoint: mean survival time, dose: 12.5 mg/kg/injection, schedule: Q01DX009 (ip), vehicle: saline with Tween-80 93 % of control | endpoint: mean survival time, dose: 25.0 mg/kg/injection, schedule: Q01DX009 (ip), vehicle: saline with Tween-80 98 % of control | endpoint: mean survival time, dose: 50.0 mg/kg/injection, schedule: Q01DX009 (ip), vehicle: saline with Tween-80 94 % of control | [4] 91 % of control

OC(c1ccccc1)c1ccc2c(c1)CCC2 (stereo unspecified)
inactive: [3] 102 % of control | [5] 98 % of control | [6] 94 % of control

Cc1noc2nc(-c3ccccc3)cc(N3CCN(C)CC3)c12
inactive: endpoint: median survival time, dose: 12.5 mg/kg/injection, schedule: Q01DX005 (ip), vehicle: other 100 % of control | endpoint: median survival time, dose: 25.0 mg/kg/injection, schedule: Q01DX005 (ip), vehicle: other 103 % of control | endpoint: median survival time, dose: 50.0 mg/kg/injection, schedule: Q01DX005 (ip), vehicle: other 98 % of control | endpoint: median survival time, dose: 100.0 mg/kg/injection, schedule: Q01DX005 (ip), vehicle: other 97 % of control | endpoint: median survival time, dose: 200.0 mg/kg/injection, schedule: Q01DX005 (ip), vehicle: other 98 % of control

CCOC(=O)CC1=Nc2c(Cl)ncnc2NN1
inactive: endpoint: mean survival time, dose: 100.0 mg/kg/injection, schedule: Q01DX001 (ip), vehicle: carboxymethylcellulose (CMC) 95 % of control | endpoint: mean survival time, dose: 200.0 mg/kg/injection, schedule: Q01DX001 (ip), vehicle: carboxymethylcellulose (CMC) 91 % of control

CC(=O)NC(C(=O)O)=C(C)C
inactive: [2] 96 % of control | [4] 105 % of control | [9] 96 % of control

CCOP(=O)(OCC)/C(C#N)=C\c1ccc(N(C)C)cc1
inactive: [3] 101 % of control | [5] 95 % of control | [6] 98 % of control

NS(=O)(=O)c1cccc([As](=O)(O)O)c1
inactive: endpoint: mean survival time, dose: 50.0 mg/kg/injection, schedule: Q04DX003 (ip), vehicle: saline 105 % of control | endpoint: mean survival time, dose: 100.0 mg/kg/injection, schedule: Q04DX003 (ip), vehicle: saline 95 % of control | endpoint: mean survival time, dose: 200.0 mg/kg/injection, schedule: Q04DX003 (ip), vehicle: saline 94 % of control

CCSC(C(O)C(O)C(O)C(O)CO)n1cnc2c(SC)ncnc21 (stereo unspecified)
inactive: endpoint: mean survival time, dose: 25.0 mg/kg/injection, schedule: Q01DX005 (ip), vehicle: water 89 % of control | endpoint: mean survival time, dose: 50.0 mg/kg/injection, schedule: Q01DX005 (ip), vehicle: water 94 % of control | endpoint: mean survival time, dose: 100.0 mg/kg/injection, schedule: Q01DX005 (ip), vehicle: water 94 % of control | endpoint: mean survival time, dose: 200.0 mg/kg/injection, schedule: Q01DX005 (ip), vehicle: water 94 % of control
